The results in this text go back to ChEMBL document CHEMBL1201862, “PubChem BioAssay data set” (2004).

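Test compounds were applied to cells in 96-well plates for 48 hours at 5 doses. GI50: concentration for 50% inhibition of growth.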 Activity calls are given as the source filed them. Rule as the data show it: active = GI50 up to about 1.1 µM and inactive = higher.

Common to all, as to assay: NCI tumour cell line growth inhibition, 48 h
In assay [1] the test system is ACHN.
The test system of assay [2] is OVCAR-5.
For assay [3], the system named is OVCAR-8.
The subject of assay [4] is OVCAR-4.
Assay [5] has as its system TK-10.
Assay [6] concerns Malme-3M.
Assay [7] concerns CAKI-1.
In assay [8] the test system is HCC 2998.
Assay [9] deals with UACC-257.
Assay [10] concerns HCT-15.
For assay [11], the system named is COLO 205.
The test system of assay [12] is A498.
Assay [13] has as its system RXF 393.
Assay [14] deals with IGROV-1.
The test system of assay [15] is CCRF-CEM.
Assay [16] relates to A549.
The test system of assay [17] is SF-268.
Assay [18] concerns PC-3.
The subject of assay [19] is NCI/ADR-RES.
Assay [20] deals with SR.

On to `S=C(Nc1ccc2c(c1)Cc1ccccc1-2)Nc1ccc2c(c1)Cc1ccccc1-2`, for which the GI50 in [1], in assay [2], in assay [3], in [4], in [5] and in assay [6] was > 100 µM (inactive) each time. Further, the GI50 was > 100 µM (inactive) in assay [7]; > 100 µM (inactive) in assay [8]; > 100 µM (inactive) in assay [9]; above 100 µM in assay [10]; > 100 µM (inactive) in [11]; > 100 µM (inactive) in assay [12]. Further, the GI50 is > 100 µM (inactive) in assay [13]; > 100 µM (inactive) in assay [14]; 11.4 µM (inactive) in assay [15]; > 100 µM (inactive) in [16]; > 100 µM (inactive) in [17]; > 100 µM (inactive) in [18]. In addition, in assay [19], the GI50 was > 100 µM (inactive).
In the case of `O=C(O)C(Cc1ccccc1-c1ccccc1)C(=O)O`, the GI50 in assay [1], in assay [2], in [3], in assay [4], in [5] and in [6] was > 100 µM (inactive) in each case. In addition, the GI50 was > 100 µM (inactive) in [7]; > 100 µM (inactive) in [9]; above 100 µM in assay [10]; > 100 µM (inactive) in assay [11]; > 100 µM (inactive) in [12]; > 100 µM (inactive) in assay [13]. Moreover, the GI50 in assay [14], in [16], in assay [17], in assay [18], in [19] and in assay [20] was > 100 µM (inactive) in each case.
On to `CCN(CC)c1ccc2cc(-c3csc(-c4ccc(N(C)C)cc4)n3)c(=O)oc2c1`, for which the GI50 in assay [1], in assay [2], in assay [3], in assay [4], in assay [5] and in assay [6] was > 100 µM (inactive) in each case. Moreover, the GI50 in [7] was > 100 µM (inactive); in [8], > 100 µM (inactive); in [9], > 100 µM (inactive); in assay [10], above 100 µM; in assay [11], > 100 µM (inactive); in assay [13] it was > 100 µM (inactive). Also, the GI50 in assay [14], in assay [15], in assay [16], in assay [17], in assay [18] and in assay [19] was > 100 µM (inactive) in each case. Also, in [20], the GI50 is > 100 µM (inactive).
Consider `CC[C@@]1(OC(=O)C(N)CCC(=O)O)C(=O)OCc2c1cc1n(c2=O)Cc2cc3ccccc3nc2-1` (stereo partly drawn), for which the GI50 in assay [1] was 0.0187 µM (active); in assay [2], 0.248 µM (active); in assay [3], 0.117 µM (active); in assay [4] it was 1.24 µM (inactive); in [5] it was 4.33 µM (inactive); in assay [6], 0.266 µM (active). The GI50 was < 0.0182 µM (active) in assay [7]; 0.461 µM (active) in assay [8]; 0.228 µM (active) in assay [9]; 0.453 µM in [10]; 0.667 µM (active) in [11]; 0.187 µM (active) in [12]. Further, the GI50 was 0.147 µM (active) in [13]; 0.513 µM (active) in assay [14]; < 0.01 µM (active) in assay [15]; 0.0348 µM (active) in assay [16]; 0.0256 µM (active) in assay [17]; 0.194 µM (active) in assay [18]. In addition, the GI50 in assay [19] was < 0.01 µM (active).
With `CN(Cc1c[n+]([O-])c2nc(N)nc(N)c2n1)c1ccc(C(=O)NC23CC4CC(CC(C4)C2)C3)cc1`, the GI50 was > 100 µM (inactive) in [1]; > 100 µM (inactive) in [2]; > 100 µM (inactive) in assay [3]; > 100 µM (inactive) in [5]; 78.2 µM (inactive) in assay [6]; > 100 µM (inactive) in assay [7]. The GI50 in assay [9] was > 100 µM (inactive); in [10] it was above 100 µM; in assay [11], > 100 µM (inactive); in assay [12], 13.5 µM (inactive); in assay [13] it was 31.2 µM (inactive); in [14], 54.3 µM (inactive). The GI50 in [15] is 28.6 µM (inactive); in [17], 26.3 µM (inactive); in [18], 89.7 µM (inactive); in assay [19], > 100 µM (inactive); in [20] it was 28.8 µM (inactive).
As for `CN(C)CCNCc1ccc2c(-c3ccccc3)nc3cc(Cl)c(Cl)cc3n12`, the GI50 was 7.6 µM (inactive) in [1]; 10.6 µM (inactive) in assay [2]; 11.1 µM (inactive) in assay [3]; 11.3 µM (inactive) in assay [4]; 10.9 µM (inactive) in assay [5]; 17.5 µM (inactive) in [6]. Further, the GI50 in [7] was 8.51 µM (inactive); in assay [8] it was 2.33 µM (inactive); in assay [9], 9.4 µM (inactive); in assay [10] it was 9.62 µM; in [11], 6.92 µM (inactive); in assay [12], 15.2 µM (inactive). Further, the GI50 in assay [13] is 4.98 µM (inactive); in assay [14], 7.59 µM (inactive); in assay [15], 1.3 µM (inactive); in assay [16] it was 10.1 µM (inactive); in assay [17] it was 13.9 µM (inactive); in [18], 10.9 µM (inactive). For the same compound, the GI50 in [19] was 15.8 µM (inactive).
With `COc1ccc(C(O)c2ccccn2)cc1` (stereo not drawn), the GI50 in assay [1], in [2], in assay [3], in assay [4], in assay [5] and in [6] was > 100 µM (inactive) each time. The GI50 in assay [7] was > 100 µM (inactive); in assay [9] it was > 100 µM (inactive); in [10], above 100 µM; in assay [11] it was > 100 µM (inactive); in assay [12] it was > 100 µM (inactive); in assay [13], > 100 µM (inactive). Moreover, the GI50 in assay [14], in [16], in assay [17], in [18], in [19] and in [20] was > 100 µM (inactive) in each case.
On to `Clc1ccc(OCC2NC3C=CC32)cn1` (stereo not drawn), for which the GI50 in [1], in assay [2], in [3], in assay [4], in [5] and in [6] was > 100 µM (inactive) each time. Also, the GI50 is > 100 µM (inactive) in assay [7]; > 100 µM (inactive) in assay [8]; > 100 µM (inactive) in [9]; above 100 µM in [10]; > 100 µM (inactive) in assay [11]; > 100 µM (inactive) in [13]. The GI50 in [14] was > 100 µM (inactive); in assay [15], 56.9 µM (inactive); in assay [16], > 100 µM (inactive); in [17], > 100 µM (inactive); in assay [18], > 100 µM (inactive); in assay [19], > 100 µM (inactive). Besides, in [20], the GI50 was 39.8 µM (inactive).
In the case of `O=C(CSCC(=O)N/N=C\c1cccc(Br)c1)N/N=C\c1cccc(Br)c1`, the GI50 was 13.6 µM (inactive) in [1]; 18.6 µM (inactive) in assay [2]; 15.3 µM (inactive) in [3]; 20.1 µM (inactive) in [4]; 11.6 µM (inactive) in assay [5]; 0.182 µM (active) in assay [6]. Besides, the GI50 in assay [7] is 17.9 µM (inactive); in assay [9], 14.1 µM (inactive); in [10], 21.2 µM; in assay [11], 34 µM (inactive); in [13] it was 20.3 µM (inactive); in assay [14], 17.1 µM (inactive). Moreover, the GI50 in [16] was 14.1 µM (inactive); in assay [17], 14.1 µM (inactive); in assay [18] it was 14.5 µM (inactive); in assay [19], 15.9 µM (inactive); in assay [20], 27.2 µM (inactive).
Turning to `COc1cc([N+](=O)[O-])c(S(=O)(=O)O)cc1-n1nc(C(=O)Nc2ccccc2)n[n+]1-c1cc(S(=O)(=O)[O-])c([N+](=O)[O-])cc1OC`, the GI50 in [1] was 93.8 µM (inactive); in assay [2], > 100 µM (inactive); in [3], > 100 µM (inactive); in assay [4] it was > 100 µM (inactive); in assay [5] it was > 100 µM (inactive); in assay [6], > 100 µM (inactive). The GI50 in [7] was > 100 µM (inactive); in assay [9], > 100 µM (inactive); in assay [10], 45.4 µM; in assay [11], > 100 µM (inactive); in [14], > 100 µM (inactive); in [15], > 100 µM (inactive). Further, the GI50 in assay [16], in assay [17], in assay [18], in assay [19] and in assay [20] was > 100 µM (inactive) throughout.
Regarding `COC[C@H]1OC(=O)c2coc3c2[C@@]1(C)C1=C(C3=O)[C@@H]2CCC(=O)[C@@]2(C)C[C@H]1OC(C)=O` [WORTMANNIN], the GI50 was 13.6 µM (inactive) in [1]; 15 µM (inactive) in [2]; 25 µM (inactive) in [3]; 11.9 µM (inactive) in assay [5]; 0.0108 µM (active) in assay [7]; 2.16 µM (inactive) in assay [8]. The GI50 was 2.95 µM (inactive) in assay [9]; 9.91 µM in assay [10]; 10 µM (inactive) in assay [11]; 1.28 µM (inactive) in assay [14]; 1.38 µM (inactive) in assay [15]; 6.56 µM (inactive) in [16]. Also, the GI50 in [17] was 21.4 µM (inactive); in [18], 0.598 µM (active); in assay [19], 38.8 µM (inactive); in assay [20] it was 1.84 µM (inactive).
